In ChEMBL document CHEMBL1201862, “PubChem BioAssay data set” (2004):
Calls of active or inactive are those of the source.

Experiments:
[1] = target: T1, Heat shock factor protein 1 (Mus musculus, UniProt P38532); experiment: decrease of HSF1-responsive luciferase luminescence – cell-based, NIH3T3, dose retest, confirmation (AID 2382); assay type: functional;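 also: NIH3T3 fibroblasts with HSF1-driven luciferase reporter stressed by proteasome inhibitor MG132; luminescence from HSF1-driven luciferase expression after 8 hours of MG132 stress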
T1 sequence (P38532 whole entry): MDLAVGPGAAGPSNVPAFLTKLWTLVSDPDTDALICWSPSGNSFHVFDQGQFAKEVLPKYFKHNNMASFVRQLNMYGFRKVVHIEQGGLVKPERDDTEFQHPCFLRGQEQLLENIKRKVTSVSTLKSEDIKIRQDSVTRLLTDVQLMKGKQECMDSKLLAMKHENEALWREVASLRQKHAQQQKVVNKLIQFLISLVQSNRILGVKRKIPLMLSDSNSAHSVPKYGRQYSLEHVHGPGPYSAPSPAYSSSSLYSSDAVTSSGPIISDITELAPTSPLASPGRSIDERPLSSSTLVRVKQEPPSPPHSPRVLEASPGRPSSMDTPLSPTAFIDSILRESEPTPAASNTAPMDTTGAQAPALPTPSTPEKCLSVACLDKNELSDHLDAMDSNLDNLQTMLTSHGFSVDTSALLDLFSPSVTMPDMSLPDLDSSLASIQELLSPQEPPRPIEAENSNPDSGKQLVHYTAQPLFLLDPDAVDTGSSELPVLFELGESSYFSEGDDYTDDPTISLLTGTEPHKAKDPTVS

[2] = cells
[3] = viability of uninfected HEp-2 cells – cell-based, HTS, cytotoxicity control for RSV inhibitor project, dose response (AID 2410); assay type: functional; settings: human respiratory syncytial virus
[4] = A Cell Based Secondary Assay To Explore Cytotoxicity of Compounds that Sensitize Mycobacterium Tuberculosis to Beta-Lactam Antibiotics.; assay type: functional
[5] = tested on: H9c2; experiment: cells; assay type: functional, cell-based; settings: Rattus norvegicus, H9c2, Myocardium;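 also: confirmatory concentration-response retest of ultra-high-throughput screening hits for modulation of myocardial damage; cell death induced by hydrogen peroxide oxidative stress; compound pretreatment for 60 min then peroxide exposure for 2 h; potency is for protecting the cells against peroxide damage rather than for killing them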
[6] = target: Ion channel NompC (Danio rerio, UniProt Q7T1G6); experiment: Fluorescence counterscreen assay for TRPML3 agonists: dose response cell-based high-throughput screening assay to identify agonists of the transient receptor potential channel N1 (TRPN1). [Related pubchem assays: 1526, 1424, 1448 ]; assay type: functional
Sequence of Ion channel NompC (Q7T1G6 whole entry): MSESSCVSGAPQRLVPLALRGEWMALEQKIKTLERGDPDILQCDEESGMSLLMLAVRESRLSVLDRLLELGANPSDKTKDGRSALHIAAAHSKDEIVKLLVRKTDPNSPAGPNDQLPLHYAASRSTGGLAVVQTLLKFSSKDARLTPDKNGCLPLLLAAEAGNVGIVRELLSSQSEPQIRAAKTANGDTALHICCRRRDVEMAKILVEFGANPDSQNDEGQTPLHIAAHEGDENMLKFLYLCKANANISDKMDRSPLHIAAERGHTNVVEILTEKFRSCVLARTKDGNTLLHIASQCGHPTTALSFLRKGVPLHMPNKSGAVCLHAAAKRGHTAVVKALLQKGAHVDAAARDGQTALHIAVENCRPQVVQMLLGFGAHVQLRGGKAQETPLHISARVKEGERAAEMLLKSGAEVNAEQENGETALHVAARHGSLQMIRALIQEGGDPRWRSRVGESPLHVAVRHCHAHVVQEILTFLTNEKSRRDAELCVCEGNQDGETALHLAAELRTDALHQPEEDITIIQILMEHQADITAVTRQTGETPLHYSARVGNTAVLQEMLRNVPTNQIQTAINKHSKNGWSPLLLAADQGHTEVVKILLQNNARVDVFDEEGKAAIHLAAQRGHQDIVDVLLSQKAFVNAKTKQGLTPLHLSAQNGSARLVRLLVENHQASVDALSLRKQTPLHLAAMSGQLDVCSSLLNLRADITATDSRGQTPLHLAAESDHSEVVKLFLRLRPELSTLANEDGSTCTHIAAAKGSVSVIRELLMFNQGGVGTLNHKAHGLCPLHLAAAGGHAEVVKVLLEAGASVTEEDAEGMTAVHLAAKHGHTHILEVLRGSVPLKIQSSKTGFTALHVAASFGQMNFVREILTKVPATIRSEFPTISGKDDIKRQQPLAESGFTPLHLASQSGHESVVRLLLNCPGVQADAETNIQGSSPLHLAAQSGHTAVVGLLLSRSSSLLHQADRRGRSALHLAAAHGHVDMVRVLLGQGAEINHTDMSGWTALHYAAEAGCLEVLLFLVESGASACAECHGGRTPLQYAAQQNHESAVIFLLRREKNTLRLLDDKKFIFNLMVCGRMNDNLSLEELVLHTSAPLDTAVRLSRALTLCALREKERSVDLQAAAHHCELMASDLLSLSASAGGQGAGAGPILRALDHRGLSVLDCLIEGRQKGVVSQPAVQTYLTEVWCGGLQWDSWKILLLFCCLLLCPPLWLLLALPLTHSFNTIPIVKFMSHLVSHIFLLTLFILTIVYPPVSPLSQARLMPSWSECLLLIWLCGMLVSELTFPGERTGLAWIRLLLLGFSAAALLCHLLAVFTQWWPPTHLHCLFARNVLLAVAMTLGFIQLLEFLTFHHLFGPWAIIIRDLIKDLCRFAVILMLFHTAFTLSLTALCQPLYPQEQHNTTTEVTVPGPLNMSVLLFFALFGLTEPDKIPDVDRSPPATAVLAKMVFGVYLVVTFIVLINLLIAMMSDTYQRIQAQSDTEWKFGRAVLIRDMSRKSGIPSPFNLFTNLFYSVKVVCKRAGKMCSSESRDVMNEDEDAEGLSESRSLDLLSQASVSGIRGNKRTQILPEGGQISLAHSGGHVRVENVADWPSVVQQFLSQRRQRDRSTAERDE

[7] = target: T2, Mucolipin-3 (Homo sapiens, UniProt Q8TDD5); experiment: Dose response cell-based high-throughput screening assay for agonists of the transient receptor potential channel ML3 (TRPML3). [Related pubchem assays: 1526, 1424, 1448 ]; assay type: functional
T2 sequence (Q8TDD5 whole entry): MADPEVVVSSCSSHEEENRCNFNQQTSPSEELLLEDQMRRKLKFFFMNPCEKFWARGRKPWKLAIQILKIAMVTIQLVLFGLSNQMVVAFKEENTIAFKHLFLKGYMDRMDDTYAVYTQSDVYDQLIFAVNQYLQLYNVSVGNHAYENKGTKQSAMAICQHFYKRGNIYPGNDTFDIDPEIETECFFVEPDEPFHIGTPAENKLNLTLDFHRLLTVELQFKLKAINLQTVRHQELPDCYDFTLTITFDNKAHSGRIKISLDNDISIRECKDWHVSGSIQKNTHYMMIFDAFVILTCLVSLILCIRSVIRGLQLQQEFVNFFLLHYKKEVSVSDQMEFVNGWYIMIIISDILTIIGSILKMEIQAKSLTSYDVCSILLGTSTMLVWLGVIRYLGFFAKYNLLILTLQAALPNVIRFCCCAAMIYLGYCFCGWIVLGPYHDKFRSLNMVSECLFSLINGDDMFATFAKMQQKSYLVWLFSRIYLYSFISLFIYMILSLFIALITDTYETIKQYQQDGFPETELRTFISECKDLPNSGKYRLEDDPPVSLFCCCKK

[8] = target: DNA dC->dU-editing enzyme APOBEC-3G (Homo sapiens, UniProt Q9HC16); assay type: functional;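 also: Dose-response counterscreen measuring inhibition of APOBEC3G DNA deaminase activity, run while confirming APOBEC3A inhibitors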
Sequence of DNA dC->dU-editing enzyme APOBEC-3G (Q9HC16 whole entry): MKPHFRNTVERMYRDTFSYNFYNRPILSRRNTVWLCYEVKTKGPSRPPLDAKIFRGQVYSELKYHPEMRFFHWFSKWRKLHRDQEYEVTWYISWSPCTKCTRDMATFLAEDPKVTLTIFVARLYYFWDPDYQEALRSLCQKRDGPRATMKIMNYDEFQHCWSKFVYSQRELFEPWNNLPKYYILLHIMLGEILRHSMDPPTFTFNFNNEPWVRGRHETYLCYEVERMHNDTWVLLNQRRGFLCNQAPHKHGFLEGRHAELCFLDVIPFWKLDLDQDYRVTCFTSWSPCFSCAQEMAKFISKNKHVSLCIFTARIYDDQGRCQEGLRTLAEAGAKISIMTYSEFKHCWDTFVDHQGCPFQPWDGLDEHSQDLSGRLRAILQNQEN

[9] = target: DNA dC->dU-editing enzyme APOBEC-3A (Homo sapiens, UniProt P31941); experiment: Dose Response confirmation of small molecule APOBEC3A DNA Deaminase Inhibitors via a fluorescence-based single-stranded DNA deaminase assay. [Related pubchem assays (depositor defined):AID493011, AID493024]; assay type: functional
Sequence of DNA dC->dU-editing enzyme APOBEC-3A (P31941 whole entry): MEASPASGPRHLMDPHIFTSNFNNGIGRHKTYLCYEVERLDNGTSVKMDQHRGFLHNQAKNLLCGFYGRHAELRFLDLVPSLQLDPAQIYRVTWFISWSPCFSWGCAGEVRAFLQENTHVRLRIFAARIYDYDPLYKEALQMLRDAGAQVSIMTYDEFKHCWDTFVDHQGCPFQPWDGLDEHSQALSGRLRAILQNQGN

[10] = target: T3, Estrogen receptor (Homo sapiens, UniProt P03372);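 also: potency for inhibiting coactivator peptide recruitment to the receptor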
T3 sequence (P03372 whole entry): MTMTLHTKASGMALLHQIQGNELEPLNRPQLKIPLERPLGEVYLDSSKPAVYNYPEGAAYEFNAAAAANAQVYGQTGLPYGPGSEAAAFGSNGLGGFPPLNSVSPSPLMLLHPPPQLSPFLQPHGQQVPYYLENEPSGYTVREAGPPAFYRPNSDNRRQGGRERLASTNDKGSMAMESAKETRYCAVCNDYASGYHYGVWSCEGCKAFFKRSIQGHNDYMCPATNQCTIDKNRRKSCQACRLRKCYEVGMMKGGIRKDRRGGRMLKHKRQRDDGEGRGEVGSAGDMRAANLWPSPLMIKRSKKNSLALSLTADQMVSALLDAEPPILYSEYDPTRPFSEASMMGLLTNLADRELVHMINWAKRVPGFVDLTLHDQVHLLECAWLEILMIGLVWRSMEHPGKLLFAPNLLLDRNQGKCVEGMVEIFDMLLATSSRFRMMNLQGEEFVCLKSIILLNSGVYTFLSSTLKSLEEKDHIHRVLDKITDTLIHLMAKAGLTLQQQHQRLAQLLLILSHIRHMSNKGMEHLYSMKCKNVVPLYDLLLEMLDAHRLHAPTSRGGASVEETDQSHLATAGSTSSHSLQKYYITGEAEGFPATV

[11] = target: G-protein coupled receptor 55 (Homo sapiens, UniProt Q9Y2T6); experiment: inhibition of LPI-stimulated GPR55 beta-arrestin translocation – imaging, U2OS, beta-arrestin-GFP, LPI agonist, primary screen (AID 2013); assay type: functional;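 also: antagonist potency measured as reduced agonist-driven arrestin aggregation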
Sequence of G-protein coupled receptor 55 (Q9Y2T6 whole entry): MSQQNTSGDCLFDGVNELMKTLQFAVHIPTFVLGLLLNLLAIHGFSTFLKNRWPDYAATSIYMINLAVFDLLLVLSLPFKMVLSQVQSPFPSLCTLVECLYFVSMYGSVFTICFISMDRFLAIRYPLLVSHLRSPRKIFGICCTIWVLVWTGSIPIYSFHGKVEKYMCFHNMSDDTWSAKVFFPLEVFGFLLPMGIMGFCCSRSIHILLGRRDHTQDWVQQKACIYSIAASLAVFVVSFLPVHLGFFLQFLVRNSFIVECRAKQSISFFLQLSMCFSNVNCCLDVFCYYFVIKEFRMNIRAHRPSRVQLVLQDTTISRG

[12] = target: T4, Leucine aminopeptidase (Plasmodium falciparum 3D7, UniProt Q8IL11); experiment: P. falciparum M17LAP inhibitors, primary screen, biochemical, fluorogenic H-Leu-NHMec substrate, 1536-well (AID 1619); assay type: functional
T4 sequence (Q8IL11 whole entry): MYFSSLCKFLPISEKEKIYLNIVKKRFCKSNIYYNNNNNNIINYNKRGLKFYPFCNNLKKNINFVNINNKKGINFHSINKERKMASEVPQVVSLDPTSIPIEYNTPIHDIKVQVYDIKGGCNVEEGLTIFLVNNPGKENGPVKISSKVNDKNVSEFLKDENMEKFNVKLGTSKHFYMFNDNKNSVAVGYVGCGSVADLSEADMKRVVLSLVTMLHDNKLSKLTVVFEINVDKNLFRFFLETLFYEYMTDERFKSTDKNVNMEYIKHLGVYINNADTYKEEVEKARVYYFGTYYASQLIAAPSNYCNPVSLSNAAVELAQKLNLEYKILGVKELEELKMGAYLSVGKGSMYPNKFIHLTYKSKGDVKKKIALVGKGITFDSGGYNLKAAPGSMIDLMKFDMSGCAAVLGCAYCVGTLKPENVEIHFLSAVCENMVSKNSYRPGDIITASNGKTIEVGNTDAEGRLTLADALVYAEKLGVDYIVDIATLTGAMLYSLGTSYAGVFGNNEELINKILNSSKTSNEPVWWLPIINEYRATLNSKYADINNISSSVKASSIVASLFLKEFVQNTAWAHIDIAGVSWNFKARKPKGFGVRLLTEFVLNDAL

[13] = target: FAD-linked sulfhydryl oxidase ALR (Homo sapiens, UniProt P55789); experiment: ALR-catalysed DTT oxidation blockers – biochemical, H2O2 detection, luminescence, cherry-pick, dose response (AID 493248)
Sequence of FAD-linked sulfhydryl oxidase ALR (P55789 whole entry): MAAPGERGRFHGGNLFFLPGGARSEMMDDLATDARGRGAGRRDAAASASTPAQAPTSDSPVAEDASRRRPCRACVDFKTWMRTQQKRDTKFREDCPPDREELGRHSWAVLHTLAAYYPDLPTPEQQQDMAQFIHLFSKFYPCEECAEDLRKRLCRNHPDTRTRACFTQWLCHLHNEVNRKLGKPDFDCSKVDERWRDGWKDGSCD

[14] = target: T5, CAAX prenyl protease 2 (Saccharomyces cerevisiae S288c, UniProt Q03530); assay type: biochemical
T5 sequence (Q03530 whole entry): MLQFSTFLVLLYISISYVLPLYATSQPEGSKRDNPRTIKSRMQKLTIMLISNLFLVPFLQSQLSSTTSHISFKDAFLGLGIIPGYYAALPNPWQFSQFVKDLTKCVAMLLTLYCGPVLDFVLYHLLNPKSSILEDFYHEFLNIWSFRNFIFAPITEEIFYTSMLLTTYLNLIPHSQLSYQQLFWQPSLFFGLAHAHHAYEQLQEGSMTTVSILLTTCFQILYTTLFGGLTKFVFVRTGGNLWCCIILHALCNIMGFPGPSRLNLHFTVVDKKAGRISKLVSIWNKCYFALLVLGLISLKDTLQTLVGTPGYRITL

[15] = target: Cytochrome P450 2D6 (Homo sapiens, UniProt P10635);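 also: CYP2D6 member of a cytochrome P450 panel assay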
Sequence of Cytochrome P450 2D6 (P10635 whole entry): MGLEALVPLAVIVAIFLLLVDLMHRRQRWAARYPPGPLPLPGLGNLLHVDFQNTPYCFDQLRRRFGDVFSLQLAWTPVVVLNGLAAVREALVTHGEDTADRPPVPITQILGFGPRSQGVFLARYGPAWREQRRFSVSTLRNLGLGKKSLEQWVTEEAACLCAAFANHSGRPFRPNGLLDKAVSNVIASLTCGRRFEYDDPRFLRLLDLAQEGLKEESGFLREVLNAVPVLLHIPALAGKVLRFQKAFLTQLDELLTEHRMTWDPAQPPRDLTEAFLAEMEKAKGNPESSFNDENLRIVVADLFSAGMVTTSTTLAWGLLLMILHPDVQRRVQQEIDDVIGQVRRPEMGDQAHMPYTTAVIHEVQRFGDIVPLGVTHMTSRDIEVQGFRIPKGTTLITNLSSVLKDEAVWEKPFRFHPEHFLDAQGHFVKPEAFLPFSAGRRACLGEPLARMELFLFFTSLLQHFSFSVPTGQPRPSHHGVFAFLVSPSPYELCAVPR

[16] = target: T6, DNA repair protein RAD52 homolog (Homo sapiens, UniProt P43351); assay type: functional, biochemical
T6 sequence (P43351 whole entry): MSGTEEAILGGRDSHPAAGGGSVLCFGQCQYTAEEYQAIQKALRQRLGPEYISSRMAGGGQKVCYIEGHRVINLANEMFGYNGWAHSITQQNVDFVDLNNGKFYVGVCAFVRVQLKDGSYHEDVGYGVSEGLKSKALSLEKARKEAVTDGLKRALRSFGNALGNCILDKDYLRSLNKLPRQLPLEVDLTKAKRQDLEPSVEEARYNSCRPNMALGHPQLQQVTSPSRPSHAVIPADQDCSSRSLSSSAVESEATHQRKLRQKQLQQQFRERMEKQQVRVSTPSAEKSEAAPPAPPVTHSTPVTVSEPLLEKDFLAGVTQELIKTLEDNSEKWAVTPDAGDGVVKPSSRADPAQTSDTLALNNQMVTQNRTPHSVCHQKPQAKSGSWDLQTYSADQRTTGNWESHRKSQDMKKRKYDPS

[17] = target: T7, Ubiquitin-conjugating enzyme E2 N (Homo sapiens, UniProt P61088); assay type: functional;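 also: Dose-response confirmation in a TR-FRET assay detecting UBC13-driven polyubiquitin chain formation, inhibition measured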
T7 sequence (P61088 whole entry): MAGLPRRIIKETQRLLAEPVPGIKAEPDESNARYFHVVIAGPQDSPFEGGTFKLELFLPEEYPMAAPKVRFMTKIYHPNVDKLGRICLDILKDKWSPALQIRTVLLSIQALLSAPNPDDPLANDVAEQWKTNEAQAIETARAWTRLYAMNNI

[18] = Trypanosoma cruzi growth suppression in host cells – NIH3T3 host cells, beta-gal luminescence, confirmation (AID 2044); assay type: functional, cell-based;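 also: intracellular parasites grown in NIH/3T3 mouse fibroblasts as host cells; luminescent beta-galactosidase reporter signal from transgenic T. cruzi replicating inside host cells; inhibitors lower the luminescence signal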
[19] = NIH3T3 cell viability loss – ATP luminescence, mouse fibroblasts, counter-screen, dose response (AID 2010); assay type: functional, cell-based;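 also: cells exposed to compound for about 90 hours before reading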
[20] = tested on: INS1; experiment: INS-1E survival protection against cytokine death – cell-based, luminescence, retest, dose response (AID 449756); assay type: functional; settings: Rattus norvegicus;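 also: cell death triggered by IL-1 beta plus TNF-alpha plus IFN-gamma mixture; protective hits raise ATP signal compared with cytokine alone wells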
[21] = target: T8, Calpain-2 catalytic subunit (Sus scrofa, UniProt P43367); experiment: m-calpain protease blockers, concentration series – biochemical, fluorogenic peptide substrate, dose response (AID 1420); assay type: functional
T8 sequence (P43367 whole entry): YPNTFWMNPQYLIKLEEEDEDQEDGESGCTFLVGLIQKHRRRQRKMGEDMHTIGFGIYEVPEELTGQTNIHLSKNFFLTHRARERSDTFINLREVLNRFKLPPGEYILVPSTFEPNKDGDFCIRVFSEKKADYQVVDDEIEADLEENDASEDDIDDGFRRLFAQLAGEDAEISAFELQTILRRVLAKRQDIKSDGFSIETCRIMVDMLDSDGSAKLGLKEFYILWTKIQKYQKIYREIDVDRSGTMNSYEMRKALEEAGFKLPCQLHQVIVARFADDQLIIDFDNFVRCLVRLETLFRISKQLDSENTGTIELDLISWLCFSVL

With `Cc1cccc(C)c1-n1c(C)cc(/C=C2\NC(=O)NC2=O)c1C` the EC50 [1] was > 195 µM (not active), the IC50 [2] was 8.7 µM (active) and the CC50 [3] was 24.6 µM (active).

For `COc1ccc(Br)cc1/C=N/NC(=O)CNC(=O)/C=C/c1ccccc1`, the CC50 [4] was 32.1 µM (active) and the IC50 [5] was 15.3 µM (active).

For `Cc1cc(C)c(S(=O)(=O)c2c(C)cccc2C)c(OCC(C)C)n1`, the EC50 [6] was > 29.9 µM (not active) and the EC50 [7] was 4.35 µM (active).

In the case of `CCN1/C(=C\C(C)=O)Sc2ccc(OC)cc21`, the IC50 [8] is reported as 2.89 µM (active) and the IC50 [9] is reported as 2.69 µM (active).

In the case of `O=C(CCNc1ccc(F)cc1)c1cccc([N+](=O)[O-])c1`, the CC50 [4] is reported as > 40 µM (active).

In the case of `CCn1c(SCC(=O)NC2CCCCC2)nc2ccccc2c1=O`, the IC50 [8] is reported as 4.97 µM (active) and the IC50 [9] is reported as 5.15 µM (active).

For `O=S(=O)(c1ccccc1)N1CCC(c2nc(O)c3nnn(Cc4ccc5c(c4)OCCO5)c3n2)CC1`, the IC50 [2] was 18.4 µM (active) and the CC50 [3] was 28.4 µM (active).

In the case of `COc1ccc(C)cc1-n1nnnc1SCC(=O)NC(=O)NCc1ccco1`, the IC50 [10] is reported as 9.48 µM (active).

For `CCc1ccccc1N(CC)C(=O)CCc1nc(-c2ccc(C)cc2)no1`, the IC50 [11] was 1.06 µM (active).

In the case of `CN1CCC(N(C)S(=O)(=O)c2ccc(NC(=O)COc3ccc(Br)cc3Cl)cc2)CC1`, the IC50 [8] is reported as 14.2 µM (active) and the IC50 [9] is reported as 10.4 µM (active).

With `Cc1[nH]c2ccccc2c1N=Nc1cccc(C(=O)O)c1` the IC50 [12] was 80.8 µM (active) and the AC50 [13] was 0.663 µM (active).

In the case of `CC1CCN(Cc2c(C(=O)N/N=C/c3cccc(C(F)(F)F)c3)nnn2-c2nonc2N)CC1`, the AC50 [14] is reported as 0.254 µM (active).

For `C/C(N)=C(/C#N)C(=O)COC(=O)c1cccc(C)c1O`, the IC50 [2] was 9.45 µM (active).

For `COc1ccc(OC)c(S(=O)(=O)N2CCCc3ccccc32)c1`, the EC50 [6] was > 29.9 µM (not active) and the EC50 [7] was 3.58 µM (active).

In the case of `COc1ccc(-n2nc(C(=O)NCC(=O)N(C)Cc3ccccc3)c3ccccc3c2=O)cc1`, the AC50 [14] is reported as 70.8 µM (active).

For `O=C(CN1CCN(S(=O)(=O)c2ccc(F)cc2)CC1)Nc1ccc(Cl)c(C(F)(F)F)c1`, the EC50 [6] was > 29.9 µM (not active), the AC50 [15] was 39.8 µM (inconclusive) and the EC50 [7] was 3.5 µM (active). For the same compound, the CC50 [3] was 4.99 µM (active).

For `Cc1ccc(C(=O)N/C(=C\c2ccc(-c3ccc(Cl)cc3)o2)C(=O)NCCCN(C)C)cc1`, the AC50 [16] was 18.5 µM (active), the IC50 [17] was > 20 µM (inactive) and the EC50 [18] was 1.63 µM (active). The CC50 [4] was 11.2 µM (active), the EC50 [19] was > 30 µM (not active) and the AC50 [20] was 7.74 µM (active).

With `O=S(=O)(N1CCCCC1)N1CCN(c2cc(Cl)ccc2Cl)CC1` the EC50 [6] was > 29.9 µM (not active), the IC50 [21] was 4.07 µM (not active) and the EC50 [7] was 2.07 µM (active).

With `O=C(N/N=C/c1ccccc1C(=O)O)c1ccc(COc2cccc3cccnc23)cc1` the IC50 [12] was 18.4 µM (active).
